Source: article PMC4466525, “Design, Synthesis and Structure-Activity Relationship Studies of Novel Survivin Inhibitors with Potent Anti-Proliferative Properties” (PLoS ONE, 2015)

How the values were obtained:
[1] = tested on: A375; assay: Cell viability (MTS) anti-proliferative assay, A375; type: cell-based; conditions: A-375, A375 human melanoma, 48 h treatment, n = 4, read-out: IC50 values ± SEM, A375
Protocol: (§1) The anti-proliferative effect of UC-112 and its analogs were tested in human melanoma (A375, M14 and M14/LCC6MDR1) and human prostate cancer (PC-3) cell lines. All the cell lines were purchased from ATCC (American Type Culture Collection, Manassas, VA). The cancer cells were cultured using the supplemented cell culture medium as described before at 37°C in a humidified atmosphere containing 5% CO2. 5000 cells in logarithm growing phase were seeded overnight into each well of a 96-well plate. Then the cells were continuously incubated with sequential diluted compound solution (10 nM to 100 μM, 100 μl per well) in cell culture medium.

[2] = tested on: M14; assay: Cell viability (MTS) anti-proliferative assay, M14; type: cell-based; conditions: M14 human melanoma, 48 h treatment, n = 4, read-out: IC50 values ± SEM, M14
Protocol: as §1

[3] = tested on: NCI-60 cell lines; assay: NCI-60 cell line screening (SRB), whole panel; type: cell-based, human
Protocol: (§2) Four compounds including the parental compound UC-112 were submitted to National Cancer Institute for its NCI-60 cell line screening, initially tested at one concentration (10 μM), and subsequently selected for full five concentration testing following the standard protocols disclosed by NCI [34]. In brief, cells were plated into 96 well micro-titer plates 24 h prior to the treatment of compound solution for 48 h, then the cell viability was read out through absorbance of sulforhodamine B (SRB) staining.

[4] = tested on: renal cancer cell line UO-31; assay: NCI-60 five dose screening, UO-31; type: cell-based; conditions: Homo sapiens, renal cancer UO-31
Protocol: as §2

[5] = tested on: HCT-15 (colon cancer); assay: NCI-60 five dose screening, HCT-15; type: cell-based; conditions: Homo sapiens, colon cancer HCT-15
Protocol: as §2

[6] = tested on: NCI/ADR-RES (ovarian cancer); assay: NCI-60 five dose screening, NCI/ADR-RES; type: cell-based; conditions: Homo sapiens, NCI-60 five dose
Protocol: as §2

[7] = Metabolic stability in human liver microsomes; type: in vitro ADME
Protocol: (§3) All these experiments were performed by a contract research service company, Eurofins Panlabs Inc. (Study Number 100017964). Aqueous solubility (μM) was determined using the shake-flask method by comparing the peak area of the principal peak in a calibration standard (200 μM) containing organic solvent (methanol/water, 60/40, v/v) with the peak area of the corresponding peak in a buffer sample. Metabolic stability study was carried out by incubating compound 4g with human liver microsomes. Metabolic stability which is expressed as percent of the parent compound remaining, was calculated by comparing the peak area of the compound at the time point relative to that at time-0. The half-life (T1/2) was estimated from the slope of the initial linear range of the logarithmic curve of compound remaining (%) vs. time. In the cytochrome P450 inhibition study, human liver microsomes (0.1 mg/mL) were incubated with different substrates and compound 4g for 10 minutes. After the incubation, peak areas corresponding to the metabolite of each substrate were recorded. The percent of control activity was then calculated by comparing the peak area obtained in the presence of compound 4g to that obtained in the absence of compound 4g. Subsequently, the percent inhibition was calculated by subtracting the percent control activity from 100.

[8] = biological target: T1, CYP1A (Homo sapiens, UniProt P05177); assay: Cytochrome P450 inhibition, CYP1A; type: in vitro ADME; conditions: probe phenacetin, substrate phenacetin, human liver microsomes 0.1 mg/mL, read-out: % inhibition of control values, CYP1A
T1 construct: tissue Eurofins Panlabs Inc. (contract research service) Study Number 100017964; host or cells: human liver microsomes
T1 sequence (P05177 2-516 limits assumed): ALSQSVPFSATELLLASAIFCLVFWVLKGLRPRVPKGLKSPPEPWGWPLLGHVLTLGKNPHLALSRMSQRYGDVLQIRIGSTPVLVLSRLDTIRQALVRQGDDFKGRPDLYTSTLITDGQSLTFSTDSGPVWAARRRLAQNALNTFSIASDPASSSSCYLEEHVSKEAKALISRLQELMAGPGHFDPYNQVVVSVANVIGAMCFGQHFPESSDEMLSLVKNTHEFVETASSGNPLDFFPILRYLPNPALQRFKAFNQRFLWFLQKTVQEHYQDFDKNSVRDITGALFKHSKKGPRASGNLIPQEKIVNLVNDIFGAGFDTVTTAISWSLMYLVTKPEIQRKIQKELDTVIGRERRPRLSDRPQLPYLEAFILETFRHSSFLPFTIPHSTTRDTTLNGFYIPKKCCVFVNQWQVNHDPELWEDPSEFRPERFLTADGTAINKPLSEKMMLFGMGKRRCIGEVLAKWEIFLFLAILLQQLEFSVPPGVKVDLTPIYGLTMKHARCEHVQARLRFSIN
Protocol: as §3

[9] = biological target: T2, CYP2B6 (Homo sapiens, UniProt P20813); assay: Cytochrome P450 inhibition, CYP2B6; type: in vitro ADME; conditions: probe bupropion, substrate bupropion, human liver microsomes 0.1 mg/mL, read-out: % inhibition of control values, CYP2B6
T2 construct: tissue Eurofins Panlabs Inc. (contract research service) Study Number 100017964; host or cells: human liver microsomes
T2 sequence (P20813 whole entry): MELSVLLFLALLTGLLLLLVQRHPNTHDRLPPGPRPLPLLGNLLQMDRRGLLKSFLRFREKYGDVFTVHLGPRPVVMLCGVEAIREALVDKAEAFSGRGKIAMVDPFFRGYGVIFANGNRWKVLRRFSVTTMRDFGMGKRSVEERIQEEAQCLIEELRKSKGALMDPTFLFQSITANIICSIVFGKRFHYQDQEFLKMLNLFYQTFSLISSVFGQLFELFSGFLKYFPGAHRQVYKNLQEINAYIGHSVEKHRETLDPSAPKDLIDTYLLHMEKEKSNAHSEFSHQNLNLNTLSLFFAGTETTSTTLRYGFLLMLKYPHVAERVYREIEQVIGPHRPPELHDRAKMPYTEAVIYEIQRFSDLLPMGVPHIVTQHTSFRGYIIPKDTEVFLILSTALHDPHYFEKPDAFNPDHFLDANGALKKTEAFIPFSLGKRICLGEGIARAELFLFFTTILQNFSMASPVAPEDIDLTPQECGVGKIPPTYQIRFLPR
Protocol: as §3

[10] = biological target: T3, CYP2C8 (Homo sapiens, UniProt P10632); assay: Cytochrome P450 inhibition, CYP2C8; type: in vitro ADME; conditions: probe paclitaxel, substrate paclitaxel, human liver microsomes 0.1 mg/mL, read-out: % inhibition of control values, CYP2C8
T3 construct: tissue Eurofins Panlabs Inc. (contract research service) Study Number 100017964; host or cells: human liver microsomes
T3 sequence (P10632 whole entry): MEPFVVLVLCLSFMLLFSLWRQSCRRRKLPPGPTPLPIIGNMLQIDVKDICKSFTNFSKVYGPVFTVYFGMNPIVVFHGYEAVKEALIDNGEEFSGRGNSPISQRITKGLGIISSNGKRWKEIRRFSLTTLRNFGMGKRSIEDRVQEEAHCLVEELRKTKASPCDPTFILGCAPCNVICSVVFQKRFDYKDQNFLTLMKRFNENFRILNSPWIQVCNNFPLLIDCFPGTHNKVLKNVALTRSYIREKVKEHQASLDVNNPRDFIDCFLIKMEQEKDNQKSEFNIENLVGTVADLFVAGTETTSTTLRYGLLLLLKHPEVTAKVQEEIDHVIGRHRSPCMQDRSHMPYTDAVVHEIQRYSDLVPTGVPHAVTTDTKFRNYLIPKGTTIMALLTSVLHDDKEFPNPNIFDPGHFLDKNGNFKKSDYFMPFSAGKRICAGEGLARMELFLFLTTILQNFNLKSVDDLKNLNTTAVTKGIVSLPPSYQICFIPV
Protocol: as §3

[11] = biological target: T4, survivin (Homo sapiens, UniProt O15392); assay: Western blotting of survivin level, PC-3 cells; type: cell-based; conditions: 24 h
T4 construct: endogenous in cells; host or cells: A375 cells
T4 sequence (O15392 whole entry): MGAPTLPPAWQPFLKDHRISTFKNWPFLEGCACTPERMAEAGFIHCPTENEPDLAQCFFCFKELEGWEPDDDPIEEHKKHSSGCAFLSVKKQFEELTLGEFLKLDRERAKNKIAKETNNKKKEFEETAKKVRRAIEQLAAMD

[12] = tested on: other IAPs (XIAP, cIAP1, cIAP2, livin); assay: Western blotting of other IAP levels; type: cell-based, human; conditions: 24 h, A375 and PC-3 cells
Protocol: Lysates of A375 cells treated by the compound solution for 24 h were used to determine the change of IAP protein levels through western blotting. Primary rabbit antibodies against survivin, XIAP, cIAP1, cIAP2, livin and GAPDH were purchased from Cell Signaling Technology, Inc. (Danvers, MA) and used according to manufacture instructions as reported previously. Protein lane intensities were quantified by ImageJ software (US National Institutes of Health, Bethesda, MD).

[13] = biological target: T4, survivin; assay: DARTS assay, survivin; type: binding; conditions: 20 μM, pronase-digested A375 or M14 cell lysates
Protocol: (§4) Drug affinity responsive target stability (DARTS) assay was performed to identify the protein targets of UC-112 analogs in A375 or M14 cell lysates following the protocols described in the literature. Briefly, A375 or M14 lysates were prepared in non-denaturing M-PER lysis buffer (Thermo Fisher Scientific, Waltham, MA) with protease and phosphatase inhibitors. Then TNC (Tris, NaCl, CaCl2) buffer was added into cell lysates before the total protein concentration of lysate being determined by BCA protein assay kit (Thermo Fisher Scientific, Waltham, MA). The lysates were split into two groups: one group was added with compound of interest solution, the other group was added with same amount of vehicle (DMSO). The samples were mixed thoroughly and incubated at room temperature for 1 h. Then 10 mg/mL pronase stock solution was added into both compound treated or vehicle control groups to achieve the final dilution of 1:100, 1:300, 1:1000 and 1:3000. One aliquot of each group was kept as un-digested control. The proteolysis was performed at room temperature for 30 min before ice cold protease inhibitor stock being added into the mixture. Then SDS loading buffer was added into all the samples and heated to 70°C for 10 min. Finally, the results were analyzed by SDS-PAGE and immunoblotting.

[14] = tested on: XIAP, cIAP1 or cIAP2; assay: DARTS assay, other IAPs; type: binding, human; conditions: 20 μM, pronase-digested A375 or M14 cell lysates
Protocol: as §4

Q: With CC(C)c1ccc(COCc2cc(CN3CCCC3)c(O)c3ncccc23)cc1 [4g, 5-(((4-isopropylbenzyl)oxy)methyl)-7-(pyrrolidin-1-ylmethyl)quinolin-8-ol] as the compound, how does the IC50 [1] read?
A: 900 ± 100 nM

Q: And the IC50 [2]?
A: 800 ± 200 nM

Q: And the GI50 ([3]; Homo sapiens, five dose testing, 48 h, SRB, read-out: Average GI50 over all cancer cell lines in the NCI-60 panel)?
A: 500 nM

Q: What about the “Activity in NCI-60 one-concentration screening” value ([3]; one concentration, 10 μM) of the same compound?
A: good activity

Q: And the GI50 [4]?
A: 52.5 nM

Q: What about the GI50 [5] of the same compound?
A: 46.8 nM

Q: And the GI50 [6]?
A: 50.1 nM

Q: What about the microsomal CLint at 100 nM ([7]; human) of the same compound?
A: 137 µL/min/mg

Q: And the half-life at 100 nM ([7]; test concentration 100 nM)?
A: 51 min

Q: What about the inhibition at 10 min [8] of the same compound?
A: 18%

Q: What about the inhibition at 10 min [9] of the same compound?
A: 21%

Q: What about the inhibition at 10 min [10] of the same compound?
A: 21%

Q: What about the “Reduction of survivin level, PC-3” value ([11]; 300 nM, lane density by ImageJ) of the same compound?
A: over 50%

Q: And the “Effect on survivin level, PC-3” value ([11]; gradient increasing dose)?
A: dose-dependently suppressed survivin level

Q: What about the “Effect on levels of other IAPs” value [12] of the same compound?
A: minimally affected

Q: And the “Protease susceptibility of survivin (DARTS)” value [13]?
A: significantly reduced

Q: What about the “Effect on protease susceptibility of other IAPs (DARTS)” value [14] of the same compound?
A: negligible effects
